Test results from patent US20260207615A1, “FLUOROPYRIDOPYRIMIDINE AND FLUOROQUINAZOLINE DERIVATIES AND METHODS OF USE THEREOF” (Frontier Medicines Corporation, priority 2022, published 2026).

Molecular target: T1, KRAS G12C and cRAF interaction (Homo sapiens, UniProt P01116, C118S/C51S/C80L/G12C)
T1 construct: truncated version comprising amino acids 1-169
Assay: Inhibition of KRAS G12C and cRAF binding (AlphaScreen)
Type: biochemical
Settings: KRAS G12C (Cys-light, aa 1-169) preloaded with GMPPNP, cRaf RBD (aa 50-131), 2 hours incubation
Protocol: The AlphaScreen technology was used to determine IC50s for compound inhibition of KRAS G12C (present as the Cys-light (C51S, C80L and C118S), truncated version comprising amino acids 1-169) and cRAF interaction. Compounds were diluted in 100% DMSO and each compound concentration was spotted at 200 nl/well onto low volume, white 384 well plates. The KRAS G12C contained a biotin-AviTag and the cRaf, as Ras-binding domain (amino acids 50-131, RBD), was GST-tagged. KRAS G12C was preloaded with the GTP analogue Guanosine 5′-[β,γ-imido]triphosphate (GMPPNP). The KRAS G12C was diluted in 25 mM Hepes, pH 7.4, 150 mM NaCl, 5 mM MgCl2, 0.01% TritonX-100 and 10 μM GMPPNP and added at 10 μl/well to compound-spotted plates resulting in a DMSO concentration of 2%. Plates were incubated for 2 hours. A mixture of RBD and the AlphaScreen streptavidin donor and glutathione acceptor beads diluted in 25 mM Hepes, pH 7.4, 150 mM NaCl, 5 mM MgCl2, 0.01% TritonX-100 and 2% DMSO was then added at 10 μl/well and incubated for 60-90 minutes before the samples were read for emission at 570 nm after excitation of the donor beads at 680 nm. All incubations were performed at room temperature. The final top compound concentration was 50 μM with 1:3 titrations for 10-point dose response curves. Final assay conditions were 0.5 nM KRAS G12C, 0.75 nM RBD and 5 μg/ml each of AlphaScreen donor and acceptor beads. IC50S were determined using nonlinear regression fit of [inhibitor] vs. response (4 parameters).
A counter assay was also set up to rule out inhibitors of the AlphaScreen technology itself. Compound plates were incubated for 2 hours as above with buffer only.
The AlphaScreen beads were added as above except biotin-AviTag-GST was substituted for the RBD. Samples were read and analyzed as above.

T1 sequence (P01116 1-169 isoform P01116-2 G12C/C51S/C80L/C118S): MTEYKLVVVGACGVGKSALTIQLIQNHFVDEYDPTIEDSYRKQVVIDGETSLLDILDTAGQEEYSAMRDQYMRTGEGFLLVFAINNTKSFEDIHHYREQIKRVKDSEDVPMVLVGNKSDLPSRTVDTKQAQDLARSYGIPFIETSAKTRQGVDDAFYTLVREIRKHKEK

IC50 | Compound
< 0.01 µM | O=C(/C=C/CN1[C@@H]2CC[C@H]1COC2)N1CCN(c2nc(OC[C@@]34CCCN3C[C@H](F)C4)nc3c(F)c(-c4cccc(Cl)c4C4CC4)ncc23)CC12COC2 [Example 24, (E)-4-((1R,5S)-3-oxa-8-azabicyclo[3.2.1]octan-8-yl)-1-(8-(7-(3-chloro-2-cyclopropylphenyl)-8-fluoro-2-(((2R,7aS)-2-fluorotetrahydro-1H-pyrrolizin-7a(5H)-yl)methoxy)pyrido[4,3-d]pyrimidin-4-yl)-2-oxa-5,8-diazaspiro[3.5]nonan-5-yl) but-2-en-1-one]
0.01 to 0.1 µM | CN(C)C/C=C/C(=O)N1CCN(c2nc(OC[C@@]34CCCN3C[C@H](F)C4)nc3c(F)c(-c4cccc5cccc(Cl)c45)ncc23)CC12COC2 [Example 25, (E)-1-(8-(7-(8-chloronaphthalen-1-yl)-8-fluoro-2-(((2R,7aS)-2-fluorotetrahydro-1H-pyrrolizin-7a(5H)-yl)methoxy)pyrido[4,3-d]pyrimidin-4-yl)-2-oxa-5,8-diazaspiro[3.5]nonan-5-yl)-4-(dimethylamino)but-2-en-1-one]
0.1 to 0.5 µM | O=C(/C=C/CN1[C@@H]2CC[C@H]1COC2)N1CCN(c2nc(OC[C@@]34CCCN3C[C@H](F)C4)nc3c(F)c(-c4ccccc4C(F)F)ncc23)CC12COC2 [Example 26, (E)-4-((1R,5S)-3-oxa-8-azabicyclo[3.2.1]octan-8-yl)-1-(8-(7-(2-(difluoromethyl)phenyl)-8-fluoro-2-(((2R,7aS)-2-fluorotetrahydro-1H-pyrrolizin-7a(5H)-yl)methoxy)pyrido[4,3-d]pyrimidin-4-yl)-2-oxa-5,8-diazaspiro[3.5]nonan-5-yl) but-2-en-1-one]
0.01 to 0.1 µM | Cc1cc(/C=C/C(=O)N2CCN(c3nc(OC[C@@]45CCCN4C[C@H](F)C5)nc4c(F)c(-c5cccc6ccc(F)c(Cl)c56)ncc34)CC23COC3)nc(C)n1 [Example 27, (E)-1-(8-(7-(8-chloro-7-fluoronaphthalen-1-yl)-8-fluoro-2-(((2R,7aS)-2-fluorotetrahydro-1H-pyrrolizin-7a(5H)-yl)methoxy)pyrido[4,3-d]pyrimidin-4-yl)-2-oxa-5,8-diazaspiro[3.5]nonan-5-yl)-3-(2,6-dimethylpyrimidin-4-yl) prop-2-en-1-one]
≥ 0.5 µM | Cc1cc(/C=C/C(=O)N2CCN(c3nc(OC[C@@]45CCCN4C[C@H](F)C5)nc4c(F)c(-c5cccc(Cl)c5C5CC5)ncc34)CC23COC3)nc(C)n1 [Example 28, (E)-1-(8-(7-(3-chloro-2-cyclopropylphenyl)-8-fluoro-2-(((2R,7aS)-2-fluorotetrahydro-1H-pyrrolizin-7a(5H)-yl)methoxy)pyrido[4,3-d]pyrimidin-4-yl)-2-oxa-5,8-diazaspiro[3.5]nonan-5-yl)-3-(2,6-dimethylpyrimidin-4-yl) prop-2-en-1-one]
< 0.01 µM | O=C(/C=C/CN1[C@@H]2CC[C@H]1COC2)N1CCN(c2nc(OC[C@@]34CCCN3C[C@H](F)C4)nc3c(F)c(-c4cc(O)cc(Cl)c4C4CC4)ncc23)CC12COC2 [Example 29, (E)-4-((1R,5S)-3-oxa-8-azabicyclo[3.2.1]octan-8-yl)-1-(8-(7-(3-chloro-2-cyclopropyl-5-hydroxyphenyl)-8-fluoro-2-(((2R,7aS)-2-fluorotetrahydro-1H-pyrrolizin-7a(5H)-yl)methoxy)pyrido[4,3-d]pyrimidin-4-yl)-2-oxa-5,8-diazaspiro[3.5]nonan-5-yl) but-2-en-1-one]
< 0.01 µM | O=C(/C=C/CN1CCOCC1)N1CCN(c2nc(OC[C@@]34CCCN3C[C@H](F)C4)nc3c(F)c(-c4cc(O)cc(Cl)c4C4CC4)ncc23)CC12COC2 [Example 30, (E)-1-(8-(7-(3-chloro-2-cyclopropyl-5-hydroxyphenyl)-8-fluoro-2-(((2R,7aS)-2-fluorotetrahydro-1H-pyrrolizin-7a(5H)-yl)methoxy)pyrido[4,3-d]pyrimidin-4-yl)-2-oxa-5,8-diazaspiro[3.5]nonan-5-yl)-4-morpholinobut-2-en-1-one]

Second part, the molecule before the results:

Compound | IC50
O=C(/C=C/CN1CC2CCC(C1)O2)N1CCN(c2nc(OC[C@@]34CCCN3C[C@H](F)C4)nc3c(F)c(-c4cccc5cccc(Cl)c45)ncc23)CC12COC2 [Example 15, (E)-4-(8-oxa-3-azabicyclo[3.2.1]octan-3-yl)-1-(8-(7-(8-chloronaphthalen-1-yl)-8-fluoro-2-(((2R,7aS)-2-fluorotetrahydro-1H-pyrrolizin-7a(5H)-yl)methoxy)pyrido[4,3-d]pyrimidin-4-yl)-2-oxa-5,8-diazaspiro[3.5]nonan-5-yl) but-2-en-1-one] | 0.01 to 0.1 µM
O=C(C#CCN1CCOCC1)N1CCN(c2nc(OC[C@@]34CCCN3C[C@H](F)C4)nc3c(F)c(-c4cccc5cccc(Cl)c45)ncc23)CC12COC2 [Example 16, 1-(8-(7-(8-chloronaphthalen-1-yl)-8-fluoro-2-(((2R,7aS)-2-fluorotetrahydro-1H-pyrrolizin-7a(5H)-yl)methoxy)pyrido[4,3-d]pyrimidin-4-yl)-2-oxa-5,8-diazaspiro[3.5]nonan-5-yl)-4-morpholinobut-2-yn-1-one] | 0.1 to 0.5 µM
C=CC(=O)N1CCN(c2nc(OC[C@@]34CCCN3C[C@H](F)C4)nc3c(F)c(-c4cccc5cccc(Cl)c45)ncc23)CC12COC2 [Example 17, 1-(8-(7-(8-chloronaphthalen-1-yl)-8-fluoro-2-(((2R,7aS)-2-fluorotetrahydro-1H-pyrrolizin-7a(5H)-yl)methoxy)pyrido[4,3-d]pyrimidin-4-yl)-2-oxa-5,8-diazaspiro[3.5]nonan-5-yl) prop-2-en-1-one] | 0.01 to 0.1 µM
O=C(/C=C/CN1CCOCC1)N1CCN(c2nc(OC[C@@]34CCCN3C[C@H](F)C4)nc3c(F)c(-c4cccc5ccc(F)c(F)c45)ncc23)CC12COC2 [Example 18, (E)-1-(8-(7-(7,8-difluoronaphthalen-1-yl)-8-fluoro-2-(((2R,7aS)-2-fluorotetrahydro-1H-pyrrolizin-7a(5H)-yl)methoxy)pyrido[4,3-d]pyrimidin-4-yl)-2-oxa-5,8-diazaspiro[3.5]nonan-5-yl)-4-morpholinobut-2-en-1-one] | 0.01 to 0.1 µM
O=C(/C=C/CN1C[C@H]2C[C@@H]1CO2)N1CCN(c2nc(OC[C@@]34CCCN3C[C@H](F)C4)nc3c(F)c(-c4cccc5ccc(F)c(F)c45)ncc23)CC12COC2 [Example 19, (E)-4-((1R,4R)-2-oxa-5-azabicyclo[2.2.1]heptan-5-yl)-1-(8-(7-(7,8-difluoronaphthalen-1-yl)-8-fluoro-2-(((2R,7aS)-2-fluorotetrahydro-1H-pyrrolizin-7a(5H)-yl)methoxy)pyrido[4,3-d]pyrimidin-4-yl)-2-oxa-5,8-diazaspiro[3.5]nonan-5-yl) but-2-en-1-one] | < 0.01 µM
O=C(/C=C/CN1CC2CC(C1)O2)N1CCN(c2nc(OC[C@@]34CCCN3C[C@H](F)C4)nc3c(F)c(-c4cccc5ccc(F)c(F)c45)ncc23)CC12COC2 [Example 20, (E)-4-(6-oxa-3-azabicyclo[3.1.1]heptan-3-yl)-1-(8-(7-(7,8-difluoronaphthalen-1-yl)-8-fluoro-2-(((2R,7aS)-2-fluorotetrahydro-1H-pyrrolizin-7a(5H)-yl)methoxy)pyrido[4,3-d]pyrimidin-4-yl)-2-oxa-5,8-diazaspiro[3.5]nonan-5-yl) but-2-en-1-one] | < 0.01 µM
O=C(/C=C/CN1[C@@H]2CC[C@H]1COC2)N1CCN(c2nc(OC[C@@]34CCCN3C[C@H](F)C4)nc3c(F)c(-c4cccc5ccc(F)c(F)c45)ncc23)CC12COC2 [Example 21, (E)-4-((1R,5S)-3-oxa-8-azabicyclo[3.2.1]octan-8-yl)-1-(8-(7-(7,8-difluoronaphthalen-1-yl)-8-fluoro-2-(((2R,7aS)-2-fluorotetrahydro-1H-pyrrolizin-7a(5H)-yl)methoxy)pyrido[4,3-d]pyrimidin-4-yl)-2-oxa-5,8-diazaspiro[3.5]nonan-5-yl) but-2-en-1-one] | < 0.01 µM
O=C(/C=C/CN1CC2CCC(C1)O2)N1CCN(c2nc(OC[C@@]34CCCN3C[C@H](F)C4)nc3c(F)c(-c4cccc5ccc(F)c(F)c45)ncc23)CC12COC2 [Example 22, (E)-4-(8-oxa-3-azabicyclo[3.2.1]octan-3-yl)-1-(8-(7-(7,8-difluoronaphthalen-1-yl)-8-fluoro-2-(((2R,7aS)-2-fluorotetrahydro-1H-pyrrolizin-7a(5H)-yl)methoxy)pyrido[4,3-d]pyrimidin-4-yl)-2-oxa-5,8-diazaspiro[3.5]nonan-5-yl) but-2-en-1-one] | < 0.01 µM
O=C(/C=C/CN1[C@@H]2CC[C@H]1COC2)N1CCN(c2nc(OC[C@@]34CCCN3C[C@H](F)C4)nc3c(F)c(-c4cccc5ccc(F)c(Cl)c45)ncc23)CC12COC2 [Example 23, (E)-4-((1R,5S)-3-oxa-8-azabicyclo[3.2.1]octan-8-yl)-1-(8-(7-(8-chloro-7-fluoronaphthalen-1-yl)-8-fluoro-2-(((2R,7aS)-2-fluorotetrahydro-1H-pyrrolizin-7a(5H)-yl)methoxy)pyrido[4,3-d]pyrimidin-4-yl)-2-oxa-5,8-diazaspiro[3.5]nonan-5-yl) but-2-en-1-one] | < 0.01 µM
